Data on five compounds can be found in paper PMC6672714 (Frontiers in Physiology, 2019).

For experiment [1], the system named is cultured chick pituitary cells (GnRH1-induced CART mRNA). It is filed as cell-based, chicken. The conditions noted are these: H89 10 μM; GnRH1 10 nM, 24 h; N = 4. The procedure:
(§1) As described in our recent studies ([Huang et al., 2014]; [Mo et al., 2015]), anterior pituitaries collected from 1-week-old chicks were sliced and digested by 0.25% trypsin at 37°C for 20 min. The dispersed pituitary cells were cultured at a density of 5 × 10^5 cells/well in Medium 199 supplemented with 15% fetal bovine serum in a Corning Cell BIND 48-well plates (Corning, Tewksbury, MA) at 37°C with 5% CO2. After 24-h culture, the medium was replaced with serum-free M199 medium and the cells were treated with chicken GnRH1/GnRH2 for the duration (12–48 h) or with increasing doses (0.1–100 nM) of each peptide. The total RNA was then extracted from cultured pituitary cells and the expression of CART and β-actin assayed by qPCR.
(§2) “ND” indicates no statistical difference between the two groups. Each data point represents mean ± SEM of four replicates (N = 4). ^**p < 0.01 vs. control; ^#p < 0.01 vs. GnRH1 treatment (in the absence of drug). […] Total ERK2 in cell lysates was also examined and used as internal controls. Note: only a single band for pERK2 or total ERK2 (42 kDa) was detected in cell lysate, because ERK1 gene is lost in chicken genome ([Gerilechaogetu et al., 2009]). The representative sets of independent experimental duplicates are shown here.
(§3) “ND” indicates no statistical difference between the two groups. Each data point represents mean ± SEM of four replicates (N = 4). ^**p < 0.01 vs. control. […] The β-actin in cell lysates were also examined and used as internal controls. The representative sets of independent experimental duplicates are shown here.

Experiment [2] has as its system rat GH3 cells (CART mRNA). Details: method as in Barrett et al., 2001. The conditions noted are these: ref Barrett et al., 2001; cited from earlier work.
The subject of experiment [3] is cultured chick pituitary cells (CART mRNA). Description: CART mRNA expression in cultured chick pituitary cells, qPCR. It is filed as cell-based, chicken. The conditions noted are these: N = 4.
Source text: Chicken anterior pituitaries were collected either for cell culture, or for total RNA extraction. Total RNA was extracted from chicken tissues or cultured pituitary cells using RNAzol (Molecular Research Center, Cincinnati, OH) and reversely transcribed using M-MLV reverse transcriptase (TaKaRa). Reverse transcription (RT) samples were then used for quantitative real-time PCR (qPCR) assays to investigate the mRNA expression of target genes, as described in our recent studies ([Cai et al., 2015]; [Mo et al., 2015]).
as §1
The data were analyzed by the Student’s t-test (between two groups) or by one-way ANOVA followed by the Dunnett test in GraphPad Prism 5 (GraphPad Software, San Diego, CA). To validate our results, all experiments were repeated at least three times.
The mRNA levels of CART were normalized by β-actin and expressed as the percentage of respective controls. Each value represents the mean ± SEM of four replicates (N = 4). ^*p < 0.05, ^**p < 0.01 vs. respective control. (E) RT-PCR detection of GnRHR2 expression in cultured chick pituitary cells (three replicates). RT was performed in the presence (+) or absence (−) of reverse transcriptase. Parallel PCR of β-actin was performed to serve as an internal control.
For orientation: Quantitative PCR measures a nucleic acid by following its amplification.

Experiment [4] has as its system ovine pars tuberalis cells (CART mRNA). Details: method as in Barrett et al., 2001. Particulars: ref Barrett et al., 2001; cited from earlier work.
The test system of experiment [5] is cultured chick pituitary cells (CART mRNA). Details: method as in Mo et al., 2015. Particulars: chickens; ref Mo et al., 2015; cited from earlier work.
Another experiment concerns rats (plasma CART). Details: method as in Stanley et al., 2004. The conditions noted are these: intraperitoneal administration, ref Stanley et al., 2004; cited from earlier work.
The subject of experiment [6] is chicken GnRHR1. Description: pGL3-NFAT-RE-luciferase reporter, calcium signaling pathway, CHO cells expressing chicken GnRHR1. The format is cell-based. The conditions noted are these: four replicates. From the text:
(§4) Based on the reported cDNA sequences of chicken GnRHR1 and GnRHR2 (accession nos.: NM_204653; NM_001012609) ([Sun et al., 2001]; [Shimizu and Bedecarrats, 2006]), gene-specific primers were used to amplify the open reading frame from adult chicken anterior pituitaries using high-fidelity Taq DNA polymerase (TOYOBO, Japan). The amplified PCR products were cloned into the pcDNA3.1 (+) expression vector (Invitrogen) and sequenced. According to our previously established methods, the signaling property of each receptor was examined in Chinese hamster ovary (CHO) cells using pGL3-NFAT-RE-luciferase ([Wang et al., 2012]), pGL4-SRE-luciferase ([Mo et al., 2015]), and pGL3-CRE-luciferase reporter systems ([Wang et al., 2007]).
(§5) Although two GnRH receptors (GnRHR1 and GnRHR2) have been identified in chickens ([Sun et al., 2001]; [Shimizu and Bedecarrats, 2006]; [Joseph et al., 2009]), their downstream signaling pathways have not been fully characterized.
(§6) Figure 5 Activation of chicken GnRHR1 or GnRHR2 expressed in CHO cells by chicken GnRH1 or GnRH2, monitored by pGL3-NFAT-RE-luciferase (A,D), pGL4-SRE-luciferase (B,E), and pGL3-CRE-luciferease (C,F) reporter systems. […] Each data point represents mean ± SEM of four replicates (N = 4).
On the technique in general: In a reporter assay the amount or activity of a reporter protein is the signal.

Experiment [7] has as its system chicken GnRHR1. Description: three cell-based luciferase reporter assays, GnRHR1 (qualitative). Particulars: GnRHR1, CHO cells, calcium, MAPK/ERK and cAMP/PKA reporters.
Source text: as §4, §5, §6

In experiment [8] the test system is chicken GnRHR1. Description: pGL4-SRE-luciferase reporter, MAPK/ERK signaling pathway, CHO cells expressing chicken GnRHR1. The format is cell-based. Particulars: four replicates.
Source text: as §4, §5, §6

For experiment [9], the system named is chicken GnRHR2. Description: pGL4-SRE-luciferase reporter, MAPK/ERK signaling pathway, CHO cells expressing chicken GnRHR2. It is filed as cell-based. Particulars: four replicates.
Source text: as §4, §5, §6

Experiment [10] deals with chicken GnRHR2. Description: pGL3-CRE-luciferase reporter, cAMP/PKA signaling pathway, CHO cells expressing chicken GnRHR2. It is filed as cell-based. The conditions noted are these: four replicates.
Source text: as §4, §5, §6

Experiment [11] has as its system chicken GnRHR2. Description: pGL3-NFAT-RE-luciferase reporter, calcium signaling pathway, CHO cells expressing chicken GnRHR2. Particulars: four replicates. The format is cell-based.
Source text: as §4, §5, §6

The next experiment concerns CREB phosphorylation. Description: CREB phosphorylation in cultured chick pituitary cells, Western blot. It is filed as cell-based, chicken. The conditions noted are these: 10 nM, 5 min, duplicates.
Source text: as §3
On the technique in general: Immunoblotting shows a protein as a band on a membrane.

For experiment [12], the system named is intact anterior pituitaries (CART secretion). Description: CART peptide secretion from intact anterior pituitaries incubated in vitro, Western blot. The conditions noted are these: 4 h, intact chick pituitaries, N = 3. It is filed as cell-based, chicken. How it is done:
As described in our recent study ([Huang et al., 2014]), the intact anterior pituitaries collected from 1-week-old male chicks were washed with PBS and placed on a 48-well plate (NUNC) supplemented with 400 μl serum-free Medium 199 (Invitrogen). After 1-h incubation at 37°C, the medium was replaced by 300 μl serum-free Medium 199 containing different concentrations of chicken GnRH1 or GnRH2 (0.1–100 nM) and incubated for 4 h. […] Parallel blotting of β-actin and CART in pituitary tissue lysates was also conducted.
The intracellular CART (iCART) and β-actin levels in the pituitary tissue lysate were also examined in parallel. […] Each data point represents mean ± SEM of three replicates (N = 3). ^*p < 0.05; ^**p < 0.01 vs. respective control. […] One representative set of Western blot is shown at the top of each graph.

The test system of the next experiment is ERK2 phosphorylation. Description: ERK2 phosphorylation in cultured chick pituitary cells, Western blot. It is filed as cell-based, chicken. Particulars: 10 nM, 10 min, duplicates.
Source text: as §2

For the next experiment, the system named is chicks (plasma CART). Description: plasma CART levels after intraperitoneal administration in chicks, ELISA. It is filed as in vivo, chicken. The conditions noted are these: 5 μg/chick, 30 min, male chicks. How it is done:
The levels of CART peptide in chicken plasma was then determined by competitive ELISA assay.
Each data point represents mean ± SEM of seven 19-day-old male individuals (N = 7). ^*p < 0.05 vs. saline (control).

The test system of experiment [13] is chicken GnRHR2. Description: three cell-based luciferase reporter assays, GnRHR2 (qualitative). Particulars: GnRHR2, CHO cells, calcium, MAPK/ERK and cAMP/PKA reporters.
Source text: as §4, §5, §6

For experiment [14], the system named is chicken GnRHR1. Description: pGL3-CRE-luciferase reporter, cAMP/PKA signaling pathway, CHO cells expressing chicken GnRHR1. The format is cell-based. Particulars: four replicates.
Source text: as §4, §5, §6

Experiment [15] concerns rat pituitary (CART secretion). Details: method as in Kappeler et al., 2006. Particulars: rat pituitary upon perfusion; ref Kappeler et al., 2006; cited from earlier work.

Usually pEC50 stands for the EC50 on a negative log10 scale, so that one unit is a factor of ten.

pEC50: −log10 of the molar value. “Also recorded” adds a separate entry of the source. No end group written: not given here.

For `O=S(=O)(NCCNC/C=C/c1ccc(Br)cc1)c1cccc2cnccc12` [H89], in experiment [1], the “effect on GnRH1-induced CART mRNA expression” value is “could abolish GnRH1-induced CART expression”. Further, the “effect on AC activator- or cAMP analog-stimulated CART mRNA levels” value in [2] is on record as “abolished”.
Regarding `CCCCCCCCCCCCCC(=O)O[C@@H]1[C@@H](C)[C@@]2(O)[C@@H](C=C(CO)C[C@]3(O)C(=O)C(C)=C[C@@H]23)[C@@H]2C(C)(C)[C@]12OC(C)=O` [PMA, phorbol-12-myristate-13-acetate, reference compound], the “effect on CART mRNA expression” value in [3] (PMA 100 nM, 48 h) was “could mimic GnRH1 action”. Moreover, the “CART mRNA expression” value in experiment [4] is recorded as “enhances CART mRNA expression”.
As for “CRH: corticotropin-releasing hormone, hypothalamic factor (literature results only)”, the “potency as stimulator of pituitary CART secretion and expression” value in [5] is “potent stimulator of pituitary CART secretion and expression”. The “plasma CART levels” value in the experiment on rats (plasma CART) is given as “increase plasma CART levels in rats”.
Regarding “GnRH1: chicken gonadotropin-releasing hormone 1, synthesized using solid-phase Fmoc chemistry; an ortholog of mammalian GnRH (QHWSYGLQPG; ends and bridges not checked; UniProt P37042 24-33, looked up)”, the negative-log EC50 (pEC50) is 7.95 with chicken GnRHR1 [6]; 6.57 in the experiment on chicken GnRHR1 [8]; 7.52 in the experiment with chicken GnRHR2 [9]; 8.67 in the experiment on chicken GnRHR2 [10]; 8.81 with chicken GnRHR2 [11]; 7.16 in the experiment with chicken GnRHR1 [14]. In the experiment on chicken GnRHR1 [7], the “activation of GnRHR1 (luciferase activity)” value is reported as “stimulate the luciferase activities dose-dependently”. In addition, the “effect on CART mRNA expression, dose dependence” value in experiment [3] (0–100 nM, 48 h, qPCR) is “stimulate CART expression dose-dependently”. Moreover, the “treatment time of maximal effect on CART mRNA expression” value in [3] (10 nM, qPCR) came to 48 h. Also, in experiment [3] (10 nM, time course (12–48 h), qPCR), the “effect on CART mRNA expression” value is given as “induce CART expression in a time-dependent manner”. Further, the “minimal effective dose, CART mRNA expression” value in experiment [3] (48 h, qPCR) was determined as 1 nM. In the experiment with CREB phosphorylation, the CREB phosphorylation result is “could enhance CREB phosphorylation”. For the same compound, in [12] (0–100 nM), the “secretion of mature CART peptide” value is on record as “potently stimulated the secretion of mature CART peptide”. Moreover, the “minimal effective concentration, CART secretion” value in experiment [12] is recorded as 1 nM. The ERK2 phosphorylation result with ERK2 phosphorylation was “could enhance ERK2 phosphorylation”. In addition, the “increase in plasma CART levels vs saline” value in the experiment on chicks (plasma CART) (N = 7, p < 0.05) is “two-fold”. Besides, the “plasma CART level” value in the experiment on chicks (plasma CART) (N = 7, saline control 1.3 ng/ml, p < 0.05) is 2.7 ng/mL. Further, in the experiment with chicken GnRHR2 [13], the “activation of GnRHR2 (luciferase activity)” value is “stimulate the luciferase activities dose-dependently; also recorded: potently activated by both GnRH1 and GnRH2”.
As to “GnRH: GnRH perfused on rat pituitary in a previous study (form not specified) (QHWSYGLRPG; ends and bridges not checked; UniProt P07490 24-33, looked up)”, the CART secretion result in experiment [15] was “CART secretion is induced”.
